The assay deals with T1, HLA-DR1 (DRB1*0101) (Homo sapiens, UniProt P01903+P01911, A100R/D57E/F55L/F60I/F76Y/I96L/L162R/M171V/P40L/Q125E/R42F/V115G/Y59C).
T1 construct: the extracellular portion of HLA-DR1 was produced by expression of isolated subunits in Escherichia coli inclusion bodies; made in house
Nature of the assay: biochemical. Type of assay: binding.

Structures are written as SMILES.

With `CC[C@H](C)[C@H](NC(=O)[C@@H](NC(=O)[C@H](CC(N)=O)NC(=O)[C@H](CCCNC(=N)N)NC(=O)[C@H](Cc1c[nH]cn1)NC(=O)[C@H](CCCNC(=N)N)NC(=O)[C@@H](NC(=O)[C@H](Cc1ccc(O)cc1)NC(=O)[C@H](CCC(=O)O)NC(=O)[C@H](C)NC(=O)[C@H](CC(C)C)NC(=O)[C@@H](NC(=O)[C@H](CC(C)C)NC(=O)[C@H](CCCCN)NC(=O)[C@H](Cc1ccccc1)NC(=O)[C@H](CO)NC(=O)[C@H](Cc1ccc(O)cc1)NC(=O)[C@H](CCCCN)NC(=O)[C@H](CC(N)=O)NC(=O)[C@H](Cc1ccc(O)cc1)NC(=O)[C@@H](N)CC(C)C)[C@@H](C)CC)[C@@H](C)CC)[C@@H](C)O)C(=O)O` [Peptide 321], the half-maximal inhibitory concentration (IC50) is 185 ± 50 nM. With `CC[C@H](C)[C@H](N)C(=O)N[C@@H](Cc1ccccc1)C(=O)N[C@@H](CCCCN)C(=O)N[C@@H](CC(N)=O)C(=O)N[C@@H](CC(N)=O)C(=O)N[C@@H](CC(=O)O)C(=O)N[C@H](C(=O)N[C@@H](CCCNC(=N)N)C(=O)N[C@H](C(=O)N[C@@H](CC(C)C)C(=O)N[C@@H](CC(C)C)C(=O)NCC(=O)N[C@@H](CC(C)C)C(=O)N[C@H](C(=O)N[C@@H](CC(C)C)C(=O)N[C@@H](Cc1ccccc1)C(=O)N[C@H](C(=O)N[C@@H](CC(C)C)C(=O)N[C@@H](C)C(=O)N[C@@H](CC(C)C)C(=O)N[C@@H](Cc1ccc(O)cc1)C(=O)O)C(C)C)[C@@H](C)CC)[C@@H](C)O)C(C)C` [Peptide 322], the IC50 is 1270 nM. Then `CC[C@H](C)[C@H](NC(=O)[C@H](Cc1ccc(O)cc1)NC(=O)CNC(=O)[C@H](C)NC(=O)[C@H](CC(C)C)NC(=O)[C@H](CCC(N)=O)NC(=O)[C@H](Cc1ccc(O)cc1)NC(=O)[C@H](Cc1ccc(O)cc1)NC(=O)[C@@H](NC(=O)[C@@H](NC(=O)[C@H](CC(C)C)NC(=O)[C@H](Cc1c[nH]cn1)NC(=O)[C@@H](NC(=O)[C@H](C)N)C(C)C)[C@@H](C)CC)[C@@H](C)CC)C(=O)N[C@@H](CC(C)C)C(=O)N[C@H](C(=O)N[C@H](C(=O)N[C@@H](CC(C)C)C(=O)NCC(=O)N[C@@H](CC(C)C)C(=O)NCC(=O)O)C(C)C)[C@@H](C)O` [Peptide 323], with 2170 nM; and `CC[C@H](C)[C@H](NC(=O)[C@H](Cc1ccccc1)NC(=O)[C@H](CC(C)C)NC(=O)[C@H](CC(C)C)NC(=O)[C@H](CS)NC(=O)[C@@H](NC(=O)[C@H](C)NC(=O)[C@H](C)NC(=O)[C@@H](NC(=O)[C@H](C)NC(=O)[C@@H](NC(=O)[C@@H](NC(=O)[C@@H](NC(=O)[C@H](Cc1ccccc1)NC(=O)[C@H](Cc1ccccc1)NC(=O)[C@@H](NC(=O)[C@H](CO)NC(=O)[C@H](CC(C)C)NC(=O)[C@H](CO)NC(=O)[C@H](CC(N)=O)NC(=O)[C@@H](N)CCSC)[C@@H](C)CC)[C@@H](C)CC)C(C)C)C(C)C)[C@@H](C)O)C(C)C)C(=O)O` [Peptide 325], with 580 ± 50 nM. As for `CC[C@H](C)[C@H](NC(=O)CNC(=O)[C@@H](NC(=O)[C@@H]1CCCN1C(=O)[C@@H](NC(=O)CNC(=O)CNC(=O)CNC(=O)[C@@H](N)CC(C)C)[C@@H](C)O)[C@@H](C)CC)C(=O)N[C@H](C(=O)N[C@@H](CO)C(=O)N[C@@H](C)C(=O)N[C@@H](CCC(N)=O)C(=O)N[C@H](C(=O)N[C@@H](CC(C)C)C(=O)N[C@@H](CO)C(=O)N[C@@H](CCC(=O)O)C(=O)N[C@@H](CCCCN)C(=O)N[C@@H](Cc1ccccc1)C(=O)N[C@H](C(=O)N[C@@H](CCC(N)=O)C(=O)O)[C@@H](C)O)C(C)C)[C@@H](C)CC` [Peptide 326], the half-inhibitory concentration (IC50) was 29 ± 8 nM. To `CC[C@H](C)[C@H](NC(=O)[C@H](CC(N)=O)NC(=O)[C@H](CCSC)NC(=O)[C@H](CS)NC(=O)[C@H](CCC(N)=O)NC(=O)[C@@H](NC(=O)[C@@H](NC(=O)[C@H](CCCCN)NC(=O)CN)[C@@H](C)O)[C@@H](C)O)C(=O)N[C@@H](CCSC)C(=O)N[C@@H](CCC(=O)O)C(=O)N[C@@H](CO)C(=O)N[C@H](C(=O)N1CCC[C@H]1C(=O)N[C@@H](C)C(=O)N[C@@H](CC(N)=O)C(=O)N[C@H](C(=O)N[C@H](C(=O)N[C@@H](CCCCN)C(=O)N[C@@H](Cc1ccc(O)cc1)C(=O)N[C@@H](CC(C)C)C(=O)O)[C@@H](C)CC)[C@@H](C)O)[C@@H](C)CC` [Peptide 327] belongs 11 ± 3 nM; to `CC[C@H](C)[C@H](NC(=O)[C@H](CCCNC(=N)N)NC(=O)[C@H](CC(=O)O)NC(=O)[C@@H](NC(=O)[C@H](CCCCN)NC(=O)[C@@H](NC(=O)[C@H](CO)NC(=O)[C@H](CCC(=O)O)NC(=O)[C@@H](NC(=O)[C@H](Cc1ccc(O)cc1)NC(=O)[C@H](CCSC)NC(=O)[C@H](Cc1ccccc1)NC(=O)[C@H](CO)NC(=O)[C@H](Cc1ccccc1)NC(=O)[C@H](CCCCN)NC(=O)[C@H](Cc1ccccc1)NC(=O)[C@H](Cc1ccccc1)NC(=O)[C@@H](N)CC(=O)O)[C@@H](C)CC)[C@@H](C)CC)C(C)C)C(=O)NCC(=O)N[C@@H](CC(=O)O)C(=O)N[C@@H](CC(N)=O)C(=O)O` [Peptide 328], 140 ± 20 nM. Turning to `CC[C@H](C)[C@H](NC(=O)[C@H](CC(N)=O)NC(=O)[C@H](Cc1ccccc1)NC(=O)[C@H](CC(C)C)NC(=O)[C@H](CCCCN)NC(=O)[C@H](CC(N)=O)NC(=O)CNC(=O)[C@H](CC(=O)O)NC(=O)[C@H](CC(C)C)NC(=O)[C@@H]1CCCN1C(=O)[C@@H](NC(=O)[C@@H](NC(=O)[C@H](CCCCN)NC(=O)[C@@H](NC(=O)[C@H](CCCCN)NC(=O)[C@H](CS)NC(=O)[C@H](CO)NC(=O)[C@@H](N)Cc1c[nH]cn1)C(C)C)[C@@H](C)CC)C(C)C)C(=O)N[C@@H](C)C(=O)N[C@@H](CCC(N)=O)C(=O)N[C@@H](CCCNC(=N)N)C(=O)O` [Peptide 329], 5 ± 1 nM corresponded to half-maximal inhibition (IC50).

Take `CC[C@H](C)[C@H](NC(=O)[C@H](CO)NC(=O)[C@H](C)NC(=O)[C@H](CC(=O)O)NC(=O)[C@H](CC(C)C)NC(=O)[C@H](CC(C)C)NC(=O)[C@H](CO)NC(=O)[C@H](C)NC(=O)[C@@H](NC(=O)[C@H](CO)NC(=O)[C@@H](NC(=O)[C@@H](NC(=O)[C@@H](NC(=O)[C@@H](NC(=O)[C@@H](NC(=O)[C@H](CCCCN)NC(=O)[C@@H](N)CCSC)C(C)C)C(C)C)[C@@H](C)CC)C(C)C)[C@@H](C)O)C(C)C)C(=O)N[C@@H](CCC(N)=O)C(=O)N[C@@H](Cc1ccccc1)C(=O)N[C@@H](CCC(N)=O)C(=O)N[C@@H](CCCCN)C(=O)O` [Peptide 332]: the IC50 worked out at 380 ± 28 nM. Consider `CC[C@H](C)[C@H](N)C(=O)N[C@@H](CCCCN)C(=O)N[C@@H](CCCNC(=N)N)C(=O)NCC(=O)N[C@@H](CC(C)C)C(=O)N[C@@H](Cc1ccccc1)C(=O)N[C@@H](Cc1ccccc1)C(=O)N[C@@H](CC(C)C)C(=O)N[C@@H](CCCNC(=N)N)C(=O)N[C@@H](CC(C)C)C(=O)N[C@@H](CO)C(=O)N[C@@H](C)C(=O)N[C@@H](CC(N)=O)C(=O)N[C@@H](CC(C)C)C(=O)N[C@@H](Cc1ccccc1)C(=O)N[C@@H](CCC(=O)O)C(=O)N[C@@H](CO)C(=O)N[C@@H](CCC(N)=O)C(=O)N[C@H](C(=O)N[C@@H](CO)C(=O)N[C@@H](CO)C(=O)O)C(C)C` [Peptide 333], for which half-maximal inhibition (IC50) was put at 68 ± 14 nM.

The record behind these values is article PMC2014795 (PLoS Pathogens, 2007).
